Read-outs that look alike come from different tables or passages of the source. Marks after values point to notes of the source that are not given here.
Columns and labels:
Sa37 sarcoma = assay: Antitumour activity in S37 ascites sarcoma bearing mice (tumour weight, total ascitocrit, survival); assay type: in vivo, mice H; details: for Survival time (T/C, %) / Total ascitocrit (T/C, %) / Tumour weight (T/C, %): administered in four days; for mean value of the tumour weight in comparison with the untreated control group / mean value of tumour cell fraction in ascites fluid (total ascitocrit) in comparison with the untreated control group: eight daily doses
Excerpt: (§1) The antineoplastic activity of the compounds of the invention has been investigated testing the compounds of the chemical group "in vivo" against experimental rodent tumors such as the solid form of Ehrlich tumour (STE, originally mammary adenocarcinoma), tumor HK (also transplantable originally mammary adenocarcinoma), Krebs' ascites tumour (Kr2), S37 ascites sarcoma, Nemeth-Keller lymphoma (NK), all maintained in mice H, Gardner lymphosarcoma (LsG, maintained in mice C3H), P388 and/or L1210 leukemia (maintained in DBA2 mice), B16 metastasizing melanocarcinoma (maintained in C57B1/6 mice) and Yoshida ascites reticulosarcoma (Y, maintained in Wistar rats) in experiments according to Jelinek, V. [Neoplasma 12, 469 (1965); ibid 7, 146 (1960)] and in "in vitro" experiments using radioactive precursors of nucleic acids and proteins according to Miko, M. et al. [Cancer Res 39, 4242 (1979); Neoplasma 26, 449 (1979); ibid 16, 161 (1969)] with minor modifications [Mattern, J.: Studies on the Drug Sensitivity of Short Term Cultured Tumour Cell Suspensions. In "Human Tumours in Short Term Culture" (Dendy, P.P. ed.), p.301, Academic Press 1976]. The Cox's proportional-hazards model was used for survival evaluation and optimal dose calculation according to Carter, V.H. et al. [cf Cancer Res. 42, 2963 (1982)].
Eighty female mice H weighing approximately 20 g were divided into four groups: one control group and three experimental groups of 20 animal each. A lethal dose of the Sa37 sarcoma ascitic fluid was implanted intraperitoneally to all the animals. The animals of test groups were treated using the compound suspended in water. The suspension contained the substance in such a concentration that dose 0.6, 0.4 and/or 0.2ml of the suspension p.o. was equal to dose 240, 160 and/or 80 mg/kg p.o., respectively. The drug was administered to the experimental animals once, a day after tumour transplantation. On the tenth day after the tumour transplantation, half of the animals in each group were killed by ether anaesthesia, ascites were emptied after laparotomia and the tumour weight was assessed in all animals from the weight difference before and after laparotomia and ascites removing. In ascites fluid the volume of tumour cell fraction was determined. The remaining animals were left to monitor the time of death and survival time was followed. […] It was also observed that the treated animals survived longer than untreated control animals. […] The results of the experiment are summarized in the following table: Antitumour activity of 6-[2-(2-hydroxyethyl)aminoethyl]5,11-dioxo-5,6-dihydro-11H-indeno[1,2-c]isoquinoline (the substance I, X=2) in S37 sarcoma bearing mice.
In an analogous experiment carried out on the animals with implanted Sa37 sarcoma the substance I (X=2) was administered in seven daily doses, and the substance I (X=3) in four days. The results of the experiment are summarized in the following table: Antitumour activity of 6-[2-(2-hydroxyethyl)aminoethyl]5,11-dioxo-5,6-dihydro-11H-indeno[1,2-c]isoquinoline (the substance I, X=2) and 6-[3-(2-hydroxyethyl)aminopropyl]5,11-dioxo-5,6-dihydro-11H-indeno[1,2-c]isoquinoline (the substance I, X=3) in S37 bearing mice.
In an experiment carried out on the animals with implanted Sa37 sarcoma the substance I (X=0) was administered in eight daily doses (analogously as in example 6).

leukemia P388 = assay: Survival of mice with leukemia P388 after intravenous administration; assay type: in vivo; details: mice DBA2 with leukemia P388
Excerpt: as §1, with “(1982)]. […]” for “(1982)].”

Yoshida ascites cells = assay: Cytotoxicity: incorporation of [3H]thymidine and [14C]uridine into trichloroacetic acid-insoluble fraction of cells; assay type: cell-based, Wistar rats
Excerpt: The degree of influence on the incorporation of [^3H]thymidine and [^14C]uridine into the fraction of Yoshida ascites cells insoluble in trichloroacetic acid serves as the measure of cytotoxicity.

Ehrlich tumour = assay: Antitumour activity against solid form of Ehrlich tumour in mice (tumour weight, survival); assay type: in vivo, mice H
Excerpt: as §1
Sixty female mice H weighing approximately 20 g were divided into three groups: one control group and two experimental groups of 20 animal each. A lethal dose of the 40 Ehrlich tumour homogenate was implanted subcutaneously to all the animals. The animals of test groups were treated using the compounds suspended in water. […] On the fourteenth day after the tumour transplantation, half of the animals in each group were killed by ether anaesthesia, tumours were removed and weighed. The remaining animals were left to monitor the time of death and survival time was followed. […] It was also observed that the treated animals survived longer than untreated control animals.

## O=C1c2ccccc2-c2c1c1ccccc1c(=O)n2CCCNCCO [I (X=3), 6-[3-(2-hydroxyethyl)aminopropyl]-5,11-dioxo-5,6-dihydro-11H-indeno[1,2-c]isoquinoline]
Sa37 sarcoma; 10 mg/kg p.o.
  Survival time (T/C, %): 119%
  Total ascitocrit (T/C, %): 80^a) %
  Tumour weight (T/C, %): 70^b) %
Sa37 sarcoma; 20 mg/kg p.o.
  Survival time (T/C, %): 99%
  Total ascitocrit (T/C, %): 62^c) %
  Tumour weight (T/C, %): 56^c) %
Sa37 sarcoma; 30 mg/kg p.o.
  Total ascitocrit (T/C, %): 43^b) %
  Tumour weight (T/C, %): 35^b) %
Sa37 sarcoma; 30 mg/kg p.o., tox - toxic dose
  Survival time (T/C, %): tox

## Cl.O=C1c2ccccc2-c2c1c1ccccc1c(=O)n2CCNCCO [I (X=2) Hydrochloride, 6-[2-(2-hydroxyethyl)aminoethyl]-5,11-dioxo-5,6-dihydro-11H-indeno[1,2-c]isoquinoline hydrochloride]
Leukemia P388
  survival: highly significant increase of survival
Yoshida ascites cells; Rattus norvegicus, YOSHIDA, Precursor [6-3H]Thymidine, read-out: IC 50
  IC50: 5 µM
Yoshida ascites cells; Rattus norvegicus, YOSHIDA, Precursor [Uracil-U-14C]uridine, read-out: IC 50
  IC50: 7 µM

## COc1cccc2c1C(=O)c1c(O)c3c(c(O)c1C2=O)C[C@@](O)(C(=O)CO)C[C@@H]3O[C@H]1C[C@H](N)[C@H](O)[C@H](C)O1 [DOXORUBICIN]
Yoshida ascites cells; Rattus norvegicus, YOSHIDA, Precursor [6-3H]Thymidine
  IC50: 16 µM
Yoshida ascites cells; Rattus norvegicus, YOSHIDA, Precursor [Uracil-U-14C]uridine
  IC50: 8 µM

## O=C1c2ccccc2-c2c1c1ccccc1c(=O)n2NCCO [I (X=0), 6-[(2-hydroxyethyl)amino]-5,11-dioxo-5,6-dihydro-11H-indeno[1,2-c]isoquinoline]
Ehrlich tumour; 50 mg/kg p.o. x 8, starting on the first day after tumour transplantation
  mean tumour weight lowered by: 13%
Ehrlich tumour; eight daily doses of 25 mg/kg p.o.
  Mean survival time in comparison with the untreated control group: 115%
Ehrlich tumour; single dose of 100 mg/kg p.o.
  mean tumour weight in the treated animals in comparison with the untreated control group: 72%
Sa37 sarcoma; 20 mg/kg s.c.
  mean value of the tumour weight in comparison with the untreated control group: 68%
  mean value of tumour cell fraction in ascites fluid (total ascitocrit) in comparison with the untreated control group: 71%
Sa37 sarcoma; 50 mg/kg p.o.
  mean value of the tumour weight in comparison with the untreated control group: 60%
  mean value of tumour cell fraction in ascites fluid (total ascitocrit) in comparison with the untreated control group: 68%

## MITOXANTRON
Yoshida ascites cells; Precursor [6-3H]Thymidine, read-out: IC 50
  IC50: 25 µM
Yoshida ascites cells; Precursor [Uracil-U-14C]uridine, read-out: IC 50
  IC50: 23 µM

From patent EP0643699B1, “6-(2-HYDROXYETHYLAMINOALKYL)-5,11-DIOXO-5,6-DIHYDRO-11H- INDENO[1,2-C]ISOQUINOLINES AND THEIR USE AS ANTINEOPLASTIC AGENTS” (priority 1991, dated 1993)
